Source: patent publication EP3120851A1, “4-AMINO-6-(2,6-DICHLOROPHENYL)-8-METHYL-2-(PHENYLAMINO)-PYRIDO[2,3-D]PYRIMIDIN-7(8H)-ONE FOR TREATMENT OF SOLID CANCERS” (Pangaea Biotech S.L., priority 2015, dated 2017)
Where two headings read alike, the source gives them in different places.

Experiments:
Experiment in all cases: MTT cell viability assay, combinations (Chou-Talalay method)
Format in all cases: cell-based
[1] = tested on: H3122 Cells; details: for IC50: Homo sapiens
Description: (§1) The combinations comprising the compound of formula (1) were tested using an MTT proliferation assay in a panel of tumor cell lines of different origins. All culture materials were obtained from the sources described in Example 2. In the Chou-Talalay method, which is the standard, universally known methodology to determine drug interactions, the two drugs under study are maintained at a fixed ratio of IC50 single agent (drug 1):IC50 single agent (drug 2) while the concentration of total amount of drugs in the combination is varied and the 20% (IC20), 50% (IC50) and 80% (IC80) of growth inhibition of the combination is determined.
(§2) In the activity assays on cell lines the following terms are used: • IC50: Drug concentration at which 50% growth inhibition is achieved. • TKI IC50: The IC50 of the tyrosine kinase inhibitor as single agent. • Compound (1) IC50: The IC50 of compound (1) as single agent. • CI@IC20: The combination index of the combination consisting of drug 1 and drug 2 at a weight ratio equal to IC50 of drug 1:IC50 of drug 2 wherein said combination is used at a total amount that achieves 20% of growth inhibition. • CI@IC50: The combination index of the combination consisting of drug 1 and drug 2 at a weight ratio equal to IC50 of drug 1:IC50 of drug 2, wherein said combination is used at a total amount that achieves 50% of growth inhibition. • CI@IC80: The combination index of the combination consisting of drug 1 and drug 2 at a weight ratio equal to IC50 of drug 1:IC50 of drug 2, wherein said combination is used at a total amount that achieves 80% of growth inhibition. • Combination TKI IC50: The combination index at a tyrosine kinase inhibitor concentration that corresponds to the IC50 (single agent). • The combination index (CI) concept was introduced by Chou T.C. and Talalay P.(Chou TC, Talalay P. Adv Enzyme Regul 1984;22:27-55). The derived combination index equation for two drugs is (D = dosage or concentration): CI = ((D)1)/((Dx)1) + ((D)2)/((Dx)2) [formula] where (Dx)1 is the concentration of drug 1 "alone" that inhibits growth at a x% (i.e. (D50)1 is the concentration of drug 1 "alone" that inhibits growth at a 50%), (Dx)2 is the concentration of drug 2 "alone" that inhibits growth at a x%, (D)1 and (D)2 refer to the concentration of drug 1 and drug 2, respectively, in the combination, wherein the combination inhibits growth at the same x%. The CI Value quantitatively defines synergism (CI<1) (in particular, CI values of CI<0.7 indicates strong synergism, 0.7<CI<0.85 indicates moderate synergism, 0.85<CI<1 indicates slight synergism), additive effect (CI=1) and antagonism (CI>1). Based on the above equation, a plot of CI values at different effect levels (fa's) can be determined. Entering a series of "dose" ((D1), (D2), ((Dx)1 and (Dx)2) and % of growth inhibition (%x or effect (fa))" into an excel sheet for each drug alone and their combinations, the CI values at different x% (or fa levels) are obtained using the above equation. This plot is also called the Fa-CI plot or the Chou-Talalay plot.
(§3) Cell viability in response to combination treatment was assessed by the Thiazolyl Blue Tetrazolium Bromide (MTT) (Sigma, St Louis, MO) assay. Cells from each cell line were seeded at 2000 to 10000 per well in 96-well plates. […] Twenty-four hours after seeding, cells were exposed to compound (1), commercial drug or combinations thereof for 72 h. In the Chou-Talalay method, which is the standard, universally known methodology to determine drug interactions, the two drugs under study are maintained at a fixed ratio IC50 single agent (drug 1):IC50 single agent (drug 2).
(§4) After treatment, cells were incubated with medium containing MTT (0.75 mg/mL in medium) for 1-2 h at 37°C. Culture medium with MTT was removed and formazan crystals reabsorbed in 100 µL DMSO (Sigma, St. Louis, MO). Cell viability was determined by measuring the absorbance at 492 nm, using a microplate reader (BioWhittaker, Walkersville, MD).

[2] = tested on: H2228 Cells; details: Homo sapiens, H2228 cells
Description: as §1, §2, §3, §4

[3] = tested on: HCC78 cells
Description: as §1, §2, §3, §4

[4] = NCI-H3122, 72 h, H3122 cells, tyrosine kinase inhibitor as single agent, 72 h, read-out: TKI IC50
[5] = Homo sapiens, HCC78, 72 h, HCC78 cells, tyrosine kinase inhibitor as single agent, 72 h, read-out: TKI IC50

## CCc1cc2c(cc1N1CCC(N3CCOCC3)CC1)C(C)(C)c1[nH]c3cc(C#N)ccc3c1C2=O [Alectinib, 9-ethyl-6,6-dimethyl-8-(4-morpholinopiperidin-1-yl)-11-oxo-6,11-dihydro-5H-benzo[b]carbazole-3-carbonitrile]
[1]; H3122 cells, TKI single agent vs with compound (1)
  Fold change in the TKI IC50: 3.355 fold
[1]; [4]
  IC50: 50 nM
[1]; NCI-H3122, H3122 cells, TKI in combination with compound (1), read-out: Combination TKI IC50
  IC50: 15 nM

## C[C@@H](Oc1cc(-c2cnn(C3CCNCC3)c2)cnc1N)c1c(Cl)ccc(F)c1Cl [Crizotinib, 3-[(1R)-1-(2,6-dichloro-3-fluorophenyl)ethoxy]-5-(1-piperidin-4-ylpyrazol-4-yl)pyridin-2-amine]
[1]; [4]
  IC50: 190 nM
[1]; NCI-H3122, read-out: IC50 of crizotinib in presence of compound of formula (1), H3122 cells, combination with compound (1)
  IC50: 29 nM
[2]; NCI-H2228, read-out: IC50 of crizotinib when compound of formula (1) was also administered, combination with compound (1)
  IC50: 53 nM
[2]; NCI-H2228, tyrosine kinase inhibitor as single agent, 72 h, read-out: TKI IC50
  IC50: 250 nM
[3]; HCC78 cells, tyrosine kinase inhibitor as single agent, 72 h, read-out: TKI IC50
  IC50: 7160 nM
[3]; [5]
  IC50: 7200 nM
[3]; Homo sapiens, HCC78, read-out: Combination TKI IC50, HCC78 cells, TKI in combination with compound (1)
  IC50: 250 nM
[3]; read-out: Combination TKI IC50, HCC78 cells, TKI in combination with compound (1)
  IC50: 249 nM

## COc1cc2c(Oc3ccc(NC(=O)C4(C(=O)Nc5ccc(F)cc5)CC4)cc3F)ccnc2cc1OCCCN1CCOCC1 [Foretinib, N^1'-[3-fluoro-4-[[6-methoxy-7-(3-morpholinopropoxy)-4-quinolyl]oxy]phenyl]-N'-(4-fluorophenyl)cyclopropane-1,1-dicarboxamide]
[3]; HCC78 cells, TKI single agent vs with compound (1)
  Fold change in the TKI IC50: 2.846 fold
[3]; [5]
  IC50: 370 nM
[3]; Homo sapiens, HCC78, HCC78 cells, TKI in combination with compound (1), read-out: Combination TKI IC50
  IC50: 130 nM
